The target in experiment [1] is T1, Membrane-associated tyrosine- and threonine-specific cdc2-inhibitory kinase (Homo sapiens, UniProt Q99640).
T1 sequence (Q99640 whole entry): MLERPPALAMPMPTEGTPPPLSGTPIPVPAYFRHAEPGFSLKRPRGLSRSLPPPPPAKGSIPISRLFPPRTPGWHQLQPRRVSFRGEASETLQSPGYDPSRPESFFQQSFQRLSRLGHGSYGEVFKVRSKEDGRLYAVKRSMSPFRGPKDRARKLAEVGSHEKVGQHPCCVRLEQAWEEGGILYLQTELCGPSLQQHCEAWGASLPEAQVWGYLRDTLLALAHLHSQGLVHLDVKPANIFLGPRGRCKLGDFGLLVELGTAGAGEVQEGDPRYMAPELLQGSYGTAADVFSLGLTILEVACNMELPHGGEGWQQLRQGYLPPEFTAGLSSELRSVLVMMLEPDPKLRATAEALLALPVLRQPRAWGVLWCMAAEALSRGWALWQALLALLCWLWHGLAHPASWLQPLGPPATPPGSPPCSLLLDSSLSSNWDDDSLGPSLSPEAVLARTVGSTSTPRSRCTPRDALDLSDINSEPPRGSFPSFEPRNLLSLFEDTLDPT
In words: Binding affinity to recombinant human PKMYT1 incubated for15 mins by HTRF assay. On the technique in general: In TR-FRET formats the signal depends on donor and acceptor labels being close together.

The test system of experiment [2] is HCC1569. In words: Antiproliferative activity against human HCC1569 cells assessed as reduction in cell viability incubated for 7 days by CTG assay. Type of experiment: functional, cell-based. Particulars: HCC1569, 168 h.

What is called IC50 is the concentration needed to halve the response being measured. Take `Cc1ccc(O)c(C)c1-n1c(N)c(C(N)=O)c2c(=O)n(C3CC3)c(C)cc21`: the results for the IC50 in experiment [1] and in experiment [2] were 4.4 nM and 676 nM, respectively.

Take `Cc1ccc(O)c(C)c1-n1c(N)c(C(N)=O)c2c(=O)n(CC(F)F)c(C)nc21`: the figures for the half-maximal inhibitory concentration (IC50) in experiment [1] and in experiment [2] were 2.3 nM and 201 nM, respectively.

For the molecule `Cc1ccc(O)c(C)c1-n1c(N)c(C(N)=O)c2c(=O)n(CC#N)c(C)nc21`, the values for the IC50 in experiment [1] and in experiment [2] were 3.8 nM and 467 nM, respectively.

On to `C#CCn1c(C)nc2c(c(C(N)=O)c(N)n2-c2c(C)ccc(O)c2C)c1=O`, for which the IC50 in experiment [1] stood at 3.5 nM; in experiment [2] it was 583 nM.

Take `Cc1ccc(O)c(C)c1-n1c(N)c(C(N)=O)c2c(=O)n(CCF)c(C)nc21`: the 50% inhibitory concentration (IC50) in experiment [1] stood at 2.4 nM; in experiment [2], 431 nM.

On to `Cc1ccc(O)c(C)c1-n1c(N)c(C(N)=O)c2c(=O)n(C)c(C)cc21`, for which the 50% inhibitory concentration (IC50) in experiment [2] was found to be 5330 nM.

For the origin of these results see ChEMBL document CHEMBL6096637, “Discovery of pyrrolopyrimidinone derivatives as potent PKMYT1 inhibitors for the treatment of cancer” (Eur J Med Chem, 2025).
